These are literature values, as cited in patent publication US10076117B2, “Pesticide formulation comprising a water soluble active ingredient and a penetration enhancer and use of the same” (ROTAM AGROCHEM INTERNATIONAL COMPANY LIMITED, priority 2014, dated 2018).

For the series the following is noted: water.

Consider `COP(=O)(NC(C)=O)SC` (stereo not shown) [acephate], for which the solubility is 650 g in 1 L of water.
